Reference: US11578055B2, “Triazacyclododecansulfonamide (“TCD”)-based protein secretion inhibitors” (KEZAR LIFE SCIENCES, priority 2018, dated 2023)
pEC50, pIC50: −log10 of the molar value. Where a name gives a salt, the structure may show the parent alone. Read-outs that look alike come from different tables or passages of the source.

Columns and labels:
[1] = tested on: PD1 signal sequence plus 10 amino acids fused to Gaussia Luciferase (PD1-ss+10aa/Gaussia Luciferase); assay: Dox Induced PD1-ss-Gluc Assay; assay type: cell-based; conditions: 24 hr, read-out: 24 hr Dox Inducible PD1ssGluc 293FRT/TO: Mean IC50
Summary of the method: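 Stable Flp-In 293 T-REx line expressing the fusion under tetracycline-inducible control, plated the day before assay. Compound dilutions added with doxycycline and incubated at 37 °C, 5% CO2; unspecified stereocentres mean data refer to stereoisomer mixtures.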

[2] = In Vitro Microsome Stability Assay (rat); assay type: in vitro ADME
Summary of the method: (§1)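 The value reported is the percentage of parent left after 30 min, calculated from analyte/IS peak-area ratios relative to time zero by LC-MS/MS. Incubations ran at 37° C in 0.1 M potassium phosphate with NADPH and microsomes (stock 20 mg/mL), with compound added from a 0.25 mM DMSO stock. Acetonitrile containing IS stopped the reactions.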

[3] = tested on: full length TNFα (amino acids 1-233) fused to Gaussia Luciferase; assay: Dox Induced TNFα-FL-Gluc Assay; assay type: cell-based; conditions: 24 hr, read-out: 24 hr Dox Inducible TNFaFLGluc 293FRT/TO: Mean IC50
Summary of the method: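 Stable Flp-In 293 T-REx line expressing doxycycline-inducible full-length TNFα fused to Gaussia luciferase; cells plated the day before, then treated with compound dilutions in doxycycline-containing medium at 37° C, 5% CO2. Unspecified stereocentres mean stereoisomer mixtures were tested.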

[4] = In Vitro Microsome Stability Assay (mouse); assay type: in vitro ADME
Summary of the method: as §1

[5] = tested on: multiple myeloma cell line NCl-H929; assay: H929 Cell Viability Assay; assay type: cell-based, human
Summary of the method: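 NCI-H929 myeloma cells in RPMI 1640 with 10% FBS were treated with compound dilutions for 48 h at 37 °C, and viability was then read by CellTiter-Glo luminescence. Compounds drawn without stereochemistry were tested as stereoisomer mixtures.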

[6] = tested on: multiple myeloma cell line U266B1; assay: U266 Cell Viability Assay; assay type: cell-based, human; conditions: 48 hr
Summary of the method: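 U266B1 myeloma cells in RPMI 1640 with 10% FBS were treated with compound dilutions for 48 h at 37° C, 5% CO2. Viability was read as CellTiter-Glo luminescence. Data for structures drawn without stereochemistry refer to stereoisomer mixtures.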

[7] = In Vitro Microsome Stability Assay (monkey); assay type: in vitro ADME
Summary of the method: as §1

[8] = In Vitro Microsome Stability Assay (human); assay type: in vitro ADME
Summary of the method: as §1

[9] = rat liver microsomes, 30 min w/ NADPH
[10] = mouse liver microsomes, 30 min w/ NADPH
[11] = Homo sapiens, NCI-H929, 48 h, H929, Celltiter-Glo
[12] = Homo sapiens, U-266, U266, Celltiter-Glo
[13] = monkey liver microsomes, 30 min w/ NADPH
[14] = human liver microsomes, 30 min w/ NADPH
[15] = Homo sapiens, NCI-H929, 48 h, H929, read-out: 48 hr H929 Viability Celltiter-Glo: Mean EC50
[16] = Homo sapiens, U-266, U266, read-out: 48 hr U266 Viability Celltiter-Glo: Mean EC50

Compound | pIC50 ([1]; Dox inducible, 293FRT/TO cells) | Liver Microsome Stability-% Left after 30 min w/ NADPH (%) Rat [2, 9] | pIC50 ([3]; Dox inducible, 293FRT/TO cells) | Liver Microsome Stability-% Left after 30 min w/ NADPH (%) Mouse [4, 10] | pEC50 [5, 11] | pEC50 [6, 12] | Liver Microsome Stability-% Left after 30 min w/ NADPH (%) Monkey [7, 13] | Liver Microsome Stability-% Left after 30 min w/ NADPH (%) Human [8, 14] | pIC50 ([1]; 293FRT/TO) | Liver Microsome Stability-% Left after 30 min w/ NADPH (%) Rat ([2]; rat, 30 min, NADPH) | pIC50 ([3]; 293FRT/TO) | Liver Microsome Stability-% Left after 30 min w/ NADPH (%) Mouse ([4]; mouse, 30 min, NADPH) | pEC50 [5, 15] | pEC50 [6, 16] | Liver Microsome Stability-% Left after 30 min w/ NADPH (%) Monkey ([7]; monkey, 30 min, NADPH) | Liver Microsome Stability-% Left after 30 min w/ NADPH (%) Human ([8]; human, 30 min, NADPH) | pEC50 ([5]; 48 hr, H929, read-out: 48 hr H929 Viability Celltiter-Glo: Mean EC50) | pEC50 ([6]; U266, read-out: 48 hr U266 Viability Celltiter-Glo: Mean EC50)
C=C1CN(S(=O)(=O)c2ccc(C)cc2)CCCN(C(=O)OCCC)CCCN(S(=O)(=O)c2ccc(N(C)C)cc2)C1 [A12, propyl 5-((4-(dimethylamino)phenyl)sulfonyl)-7-methylene-9-tosyl-1,5,9-triazacyclododecane-1-carboxylate] |  |  |  |  |  |  |  |  | 6.07 | 0.07% | < 4.60 | 0.1% | < 4.60 | < 4.60 | 0.22% | 0.11% |  | 
C=C1CN(S(=O)(=O)c2ccc(N(C)C)cc2)CCCN(CC2CCCCC2)CCCN(S(=O)(=O)N2CCC(n3cccn3)CC2)C1 [A79, 4-{[9-(cyclohexylmethyl)-3-methylidene-5-{[4-(1H-pyrazol-1-yl)piperidin-1-yl]sulfonyl}-1,5,9-triazacyclododecan-1-yl]sulfonyl}-N,N-dimethylaniline] |  |  |  |  |  |  |  |  | 6.39 | 0.1% | < 4.60 | 10.6% | < 4.60 | < 4.60 | 0.06% | 0.16% |  | 
C=C1CN(S(=O)(=O)c2ccc(N(C)C)cc2)CCCN(CC2CCCCC2)CCCN(S(=O)(=O)N2CCc3cc(F)ccc3C2)C1 [A59, 4-{[9-(cyclohexylmethyl)-5-[(6-fluoro-1,2,3,4-tetrahydroisoquinolin-2-yl)sulfonyl]-3-methylidene-1,5,9-triazacyclododecan-1-yl]sulfonyl}-N,N-dimethylaniline] |  |  |  |  |  |  |  |  | 7.62 | 3.9% | 6.21 | 3.73% | 5.84 | < 4.60 | 1.94% | 1.89% |  | 
C=C1CN(S(=O)(=O)c2ccc(N(C)C)cc2)CCCN(CC2CCCCC2)CCCN(S(=O)(=O)N2CCN(c3ccccc3)[C@@H](C)C2)C1 [A47, 4-{[9-(cyclohexylmethyl)-5-{[(3S)-3-methyl-4-phenylpiperazin-1-yl]sulfonyl}-3-methylidene-1,5,9-triazacyclododecan-1-yl]sulfonyl}-N,N-dimethylaniline] |  |  |  |  |  |  |  |  | 6.59 | 10.7% | < 4.60 | 5.68% | < 4.60 | < 4.60 | 1.68% | 12.6% |  | 
CN(C)c1ccc(S(=O)(=O)N2CCCN(CC3CCCCC3)CCCN(S(=O)(=O)N3CCC(C)(C)CC3)CC3(CC3)C2)cc1 [A26, 4-{[9-(cyclohexylmethyl)-13-[(4,4-dimethylpiperidin-1-yl)sulfonyl]-5,9,13-thazaspiro[2.11]tetradecan-5-yl]sulfonyl}-N,N-dimethylaniline] |  |  |  |  |  |  |  |  | 6.65 | 1.84% | < 4.60 | 3.4% | 4.79 | < 4.60 | 0.13% | 6.65% |  | 
C=C1CN(S(=O)(=O)c2ccc(N(C)C)cc2)CCCN(CC2CCCCC2)CCCN(S(=O)(=O)N2CCC(c3cccc(Cl)c3)CC2)C1 [A58, 4-[(5-{[4-(3-chlorophenyl)piperidin-1-yl]sulfonyl}-9-(cyclohexylmethyl)-3-methylidene-1,5,9-triazacyclododecan-1-yl)sulfonyl]-N,N-dimethylaniline] |  |  |  |  |  |  |  |  | 7.14 | 66.7% | 5.07 | 72.8% | < 4.60 | < 4.60 | 53.1% | 31.6% |  | 
C=C1CN(S(=O)(=O)c2ccc(C)cc2)CCCN(CC2CCCCC2)CCCN(S(=O)(=O)C2CCCCC2)C1 [A8, 1-(cyclohexanesulfonyl)-9-(cyclohexylmethyl)-5-(4-methylbenzenesulfonyl)-3-methylidene-1,5,9-triazacyclododecane] |  |  |  |  |  |  |  |  | 5.57 | 0.61% | < 4.60 | 0.17% |  |  | 0.19% | 0.09% | < 4.60 | < 4.60
O=S(=O)(c1ccccc1)N1CCCN(CC2CCCCC2)CCCN(S(=O)(=O)N2CCCCC2)CC2(CC2)C1 [A34, 5-(benzenesulfonyl)-9-(cyclohexylmethyl)-13-(piperidine-1-sulfonyl)-5,9,13-triazaspiro[2.11]tetradecane] |  |  |  |  |  |  |  |  | < 4.60 | 0.12% | < 4.60 | 0.24% | < 4.60 | < 4.60 | 0.09% | 0.03% |  | 
CN(C)c1ccc(S(=O)(=O)N2CCCN(CC3CCCCC3)CCCN(S(=O)(=O)N3CCC(c4ccccc4)CC3)CC(O)C2)cc1 (stereo not drawn) [A55, 9-(cyclohexylmethyl)-1-[4-(dimethylamino)benzenesulfonyl]-5-[(4-phenylpiperidin-1-yl)sulfonyl]-1,5,9-triazacyclododecan-3-ol] |  |  |  |  |  |  |  |  | 5.81 | 0.97% | < 4.60 | 1.18% | < 4.60 | < 4.60 | 0.34% | 4.87% |  | 

The remaining lines, values ahead:

pIC50 ([1]; Dox inducible, 293FRT/TO cells) | Liver Microsome Stability-% Left after 30 min w/ NADPH (%) Rat [2, 9] | pIC50 ([3]; Dox inducible, 293FRT/TO cells) | Liver Microsome Stability-% Left after 30 min w/ NADPH (%) Mouse [4, 10] | pEC50 [5, 11] | pEC50 [6, 12] | Liver Microsome Stability-% Left after 30 min w/ NADPH (%) Monkey [7, 13] | Liver Microsome Stability-% Left after 30 min w/ NADPH (%) Human [8, 14] | pIC50 ([1]; 293FRT/TO) | Liver Microsome Stability-% Left after 30 min w/ NADPH (%) Rat ([2]; rat, 30 min, NADPH) | pIC50 ([3]; 293FRT/TO) | Liver Microsome Stability-% Left after 30 min w/ NADPH (%) Mouse ([4]; mouse, 30 min, NADPH) | pEC50 [5, 15] | pEC50 [6, 16] | Liver Microsome Stability-% Left after 30 min w/ NADPH (%) Monkey ([7]; monkey, 30 min, NADPH) | Liver Microsome Stability-% Left after 30 min w/ NADPH (%) Human ([8]; human, 30 min, NADPH) | pEC50 ([5]; 48 hr, H929, read-out: 48 hr H929 Viability Celltiter-Glo: Mean EC50) | pEC50 ([6]; U266, read-out: 48 hr U266 Viability Celltiter-Glo: Mean EC50) | Compound
< 4.60 | 2.79% | < 4.60 | 2.21% | < 4.60 | 4.78 | 1.7% | 12.1% |  |  |  |  |  |  |  |  |  |  | CN(C)c1ccc(S(=O)(=O)N2CCCN(CC3CCCCC3)CCCN(S(=O)(=O)N3CCCCC3)C2)cc1 [B4, 4-{[7-(cyclohexylmethyl)-3-(piperidine-1-sulfonyl)-1,3,7-triazecan-1-yl]sulfonyl}-N,N-dimethylaniline]
6.37 | 0.01% | < 4.60 | 0.02% | < 4.60 | < 4.60 | 0.02% | 0.04% |  |  |  |  |  |  |  |  |  |  | C=C1CN(S(=O)(=O)c2ccc(C)cc2)CCCN(CC2CCCCC2)CCC(C)N(S(=O)(=O)c2ccc(C)cc2)C1 (stereo not drawn) [B1, 5-(cyclohexylmethyl)-2-methyl-11-methylene-1,9-ditosyl-1,5,9-triazacyclododecane hydrochloride]
6.66 | 15.7% | 4.81 | 13.5% | < 4.60 | < 4.60 | 0.98% | 9.46% |  |  |  |  |  |  |  |  |  |  | C=C1CN(S(=O)(=O)c2ccc(N(C)C)cc2)C(C)CCN(CC2CCCCC2)CCCN(S(=O)(=O)N2CCC(c3ccccc3)CC2)C1 (stereo not drawn) [B19, 4-{[5-(cyclohexylmethyl)-2-methyl-11-methylidene-9-[(4-phenylpiperidin-1-yl)sulfonyl]-1,5,9-triazacyclododecan-1-yl]sulfonyl}-N,N-dimethylaniline]
